From publication PMC4037324 (Drug metabolism letters, 2012)

Columns and labels:
[1] = molecular target: T1, cytochrome P450 2D6 (CYP2D6) (Homo sapiens, UniProt P10635); experiment: UV-vis spectral binding titration
Target sequence in this assay (P10635 whole entry): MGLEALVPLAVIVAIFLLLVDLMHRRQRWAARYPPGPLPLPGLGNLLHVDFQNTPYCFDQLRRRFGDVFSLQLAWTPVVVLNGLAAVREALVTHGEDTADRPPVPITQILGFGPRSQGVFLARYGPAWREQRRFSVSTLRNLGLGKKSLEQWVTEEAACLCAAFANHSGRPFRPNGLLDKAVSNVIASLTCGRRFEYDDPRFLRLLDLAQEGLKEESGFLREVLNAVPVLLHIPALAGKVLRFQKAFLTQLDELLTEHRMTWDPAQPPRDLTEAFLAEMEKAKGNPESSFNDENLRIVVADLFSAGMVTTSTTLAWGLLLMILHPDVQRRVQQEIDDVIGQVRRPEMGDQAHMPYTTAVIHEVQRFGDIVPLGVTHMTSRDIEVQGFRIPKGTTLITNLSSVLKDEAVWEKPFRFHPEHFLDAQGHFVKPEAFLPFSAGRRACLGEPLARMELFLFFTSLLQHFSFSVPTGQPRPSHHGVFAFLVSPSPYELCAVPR

[2] = molecular target: T1, cytochrome P450 2D6 (CYP2D6); experiment: NADPH-dependent inactivation of bufuralol […]'-hydroxylation in CYP2D6 Supersomes; type: cell-based
Target sequence in this assay (P16435 2-677): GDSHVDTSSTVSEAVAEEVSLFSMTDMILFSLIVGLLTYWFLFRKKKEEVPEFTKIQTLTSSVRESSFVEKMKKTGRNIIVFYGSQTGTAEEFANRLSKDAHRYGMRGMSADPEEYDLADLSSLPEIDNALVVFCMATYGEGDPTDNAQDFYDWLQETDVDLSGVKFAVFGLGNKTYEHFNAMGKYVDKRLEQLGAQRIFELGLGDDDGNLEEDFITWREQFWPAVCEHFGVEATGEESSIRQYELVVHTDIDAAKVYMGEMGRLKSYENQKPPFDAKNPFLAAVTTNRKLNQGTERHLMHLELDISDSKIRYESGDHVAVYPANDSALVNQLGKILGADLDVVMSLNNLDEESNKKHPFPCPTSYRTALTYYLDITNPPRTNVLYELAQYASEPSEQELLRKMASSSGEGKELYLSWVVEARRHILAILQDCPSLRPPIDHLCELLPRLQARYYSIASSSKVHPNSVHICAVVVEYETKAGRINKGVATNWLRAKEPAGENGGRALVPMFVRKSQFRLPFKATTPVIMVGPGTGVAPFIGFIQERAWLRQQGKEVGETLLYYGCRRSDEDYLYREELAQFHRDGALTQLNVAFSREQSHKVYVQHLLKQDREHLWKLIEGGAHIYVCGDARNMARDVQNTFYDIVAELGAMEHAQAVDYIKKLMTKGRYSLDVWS
Target sequence in this assay (P10635 whole entry): as the sequence (P10635 whole entry) above

SMILES	Kd [1]	partition ratio [2]
CCc1nc(C)c(CN2CCN(c3cc(C(F)(F)F)ccn3)CC2)[nH]1 [EMTPP]	29.8 ± 3.04 µM	
CNC(C)Cc1ccc2c(c1)OCO2 (centres unmarked) [MDMA]		91
